Experiments:
[1] = system: 10 week old dystrophic mice (mdx); experiment: D2-mdx Duchenne's muscular dystrophy model, 10 week old mice; assay type: in vivo; conditions: 150 ug/kg with 1.2 g/kg sodium butyrate subcutaneously every 24 hours, 14 days
Description: Between 3-6 weeks old, the skeletal muscle of mdx mice undergoes severe necrosis followed by an increase in the activation of satellite cells to promote muscle regeneration. Treatment with IGF2 fusion polypeptide described herein can improve the regeneration process and therefore muscle health. Mice were fed ad libitum and housed under controlled conditions of lighting (12-hour light/12-hour dark) and temperature (22-24° C.). Mice were allowed to acclimate for 3 days prior to the initiation of the experiment. During the acclimation period, the weight, forelimb and both limb grip strength as well as in vivo tetanic force were assessed to determine the baseline strength of each mouse. 10 week old dystrophic mice (mdx) were injected with the IGF2 fusion polypeptide with sodium butyrate subcutaneously for 14 days. At day 7, forelimb and both grip strength are measured as described in Example 4. BrdU was injected on days 12, 13 and 14. On days 13, 14 and 15, forelimb and both limb grip strength and in vivo tetanic force were tested, and an endurance test to determine max distance and max speed was performed using methods described in Example 4.
Mice were euthanized. The right tibialis anterior and gastrocnemius were collected, immersed in Tissue-TEK OCT and then flash frozen in a chilled isopentane bath precooled in liquid nitrogen and stored at −80° C. Tissue was sectioned and stained for Laminin to determine the cross sectional area (CSA) of muscle fibers, for eMyHC to measure new fiber formation and for BrdU to assess the proliferation rate. The left anterior tibialis and gastrocnemius were collected and flash frozen in liquid nitrogen for molecular analysis that include qPCR and western blot.

Aged human myoblasts = experiment: Myogenic transcription factor expression in aged human myoblasts; assay type: cell-based; conditions: compared to fusion media
Description: RNA was isolated from each well (RNeasy Mini Kit, Qiagen) and cDNA was obtained by reverse-transcription (High Capacity Reverse Transcription Kit, Thermo Fisher Scientific). Real-time quantitative PCR was performed using QuantStudio3 (Thermo Fisher).
Aged human myoblasts were cultured in well plates. […] Cells that had been cultured with IGF2 had increases in levels of MYOG at 48 hours and levels of MYOD at 72 hours.

DM1 human myoblast cells [2] = experiment: Fusion (% eMyHC area) of DM1 human myoblast; assay type: cell-based; conditions: 96 h for fusion
Description: (§1) FIG. 7A Bar graph of % EdU+ human myoblast (person) and FIG. 7B % area MyHC in response to IGF2. Myoblast were cultured 72 h for proliferation and 96 h for fusion in the presence of indicated factor. Mean∓S.D. Mean∓SD. Significant p-values (EdU: Vehicle˜IGF2: 6.8E-3, % eMyHC Area: Vehicle˜IGF2: 1.9E-4) (*p<0.05 by Students Two-Tailed T-test, n=3−6).
(§2) IGF2 was tested individually for its ability to promote proliferation and/or fusion of human muscle progenitor cells from an individual with myotonic dystrophy type 1 (hMD)—a muscular dystrophy caused by mutations in the DMPK1 gene. […] After 72 or 96 hours, cells were pulsed for 2-5 hours with EdU (30 uM), ethanol fixed, stained with Hoescht 3342, immunostained for proliferation—as measured by the percent of cells staining positive for EdU (% EdU)-, and immunostained for differentiation—as measured by the increase in cellular area staining positive for embryonic myosin heavy chain (% eMyHC) relative to the negative controls, which received media and vehicle only. Wells were imaged on a Keyence BZ-100 at 4×, the images quantified in Cell Profiler, and the statistics were computed in R. Additionally, RNA was extracted from myoblast and select transcript abundances quantified by qPCR. […]

[3] = biological target: Insulin Degrading Enzyme (IDE) (Homo sapiens, UniProt P14735); conditions: Malito et al. Cell Mol Life Sci. 2008; read-out: affinity of IDE for IGF2 as a substrate; cited from earlier work
DM1 human myoblast cells [4] = experiment: Proliferation (EdU) of DM1 human myoblast; assay type: cell-based; conditions: 72 h for proliferation
Description: as §1, §2

Substance: IGF2: Human IGF2 polypeptide, amino acids 25 to 91 of SEQ ID NO. 32 (i.e. SEQ ID NO. 29)
- bothlimb grip strength [1]: effective at improving
- forelimb grip strength [1]: effective at improving
- muscle weight [1]: effective at improving
- total work [1]: effective at improving
- treadmill running distance [1]: effective at improving
- treadmill running time to exhaustion [1]: effective at improving
- MYF5 −48 h, fold change (Aged human myoblasts; 48 h): 0.409
- MYOD1 −48 h, fold change (Aged human myoblasts; 48 h): 0.519
- MYF5 −72h, fold change (Aged human myoblasts; 72 h): 0.708
- MYOG −72 h, fold change (Aged human myoblasts; 72 h): 0.018
- % eMyHC area (DM1 human myoblast cells [2]): 5.49%
- Kd [3]: ~0.1 µM
- EdU FC (DM1 human myoblast cells [4]): 2.18
